# Measurements from paper PMC4979471 (Cell Death Discovery, 2015).
# Where two headings read alike, the source gives them in different places.
# Key:
# Experiment in all cases: Kinase selectivity, P33-radiolabeled assay
# Format in all cases: biochemical
# Conditions in all cases: 10 μM ATP
# EGFR = biological target: T1, EGFR (Homo sapiens, UniProt P00533)
# T1 construct: purchased Reaction Biology Corp
# How it was run: (§1)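 Activity relative to DMSO controls (%) was measured for compound at 10 μM. Assays ran at 10 μM ATP, in duplicate.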
# FGFR3 = biological target: T2, FGFR3 (Homo sapiens, UniProt P22607)
# T2 construct: purchased Reaction Biology Corp
# How it was run: as §1
# FLT3 = biological target: T3, FLT3 (Homo sapiens, UniProt P36888)
# T3 construct: purchased Reaction Biology Corp
# T3 sequence (P36888 27-993): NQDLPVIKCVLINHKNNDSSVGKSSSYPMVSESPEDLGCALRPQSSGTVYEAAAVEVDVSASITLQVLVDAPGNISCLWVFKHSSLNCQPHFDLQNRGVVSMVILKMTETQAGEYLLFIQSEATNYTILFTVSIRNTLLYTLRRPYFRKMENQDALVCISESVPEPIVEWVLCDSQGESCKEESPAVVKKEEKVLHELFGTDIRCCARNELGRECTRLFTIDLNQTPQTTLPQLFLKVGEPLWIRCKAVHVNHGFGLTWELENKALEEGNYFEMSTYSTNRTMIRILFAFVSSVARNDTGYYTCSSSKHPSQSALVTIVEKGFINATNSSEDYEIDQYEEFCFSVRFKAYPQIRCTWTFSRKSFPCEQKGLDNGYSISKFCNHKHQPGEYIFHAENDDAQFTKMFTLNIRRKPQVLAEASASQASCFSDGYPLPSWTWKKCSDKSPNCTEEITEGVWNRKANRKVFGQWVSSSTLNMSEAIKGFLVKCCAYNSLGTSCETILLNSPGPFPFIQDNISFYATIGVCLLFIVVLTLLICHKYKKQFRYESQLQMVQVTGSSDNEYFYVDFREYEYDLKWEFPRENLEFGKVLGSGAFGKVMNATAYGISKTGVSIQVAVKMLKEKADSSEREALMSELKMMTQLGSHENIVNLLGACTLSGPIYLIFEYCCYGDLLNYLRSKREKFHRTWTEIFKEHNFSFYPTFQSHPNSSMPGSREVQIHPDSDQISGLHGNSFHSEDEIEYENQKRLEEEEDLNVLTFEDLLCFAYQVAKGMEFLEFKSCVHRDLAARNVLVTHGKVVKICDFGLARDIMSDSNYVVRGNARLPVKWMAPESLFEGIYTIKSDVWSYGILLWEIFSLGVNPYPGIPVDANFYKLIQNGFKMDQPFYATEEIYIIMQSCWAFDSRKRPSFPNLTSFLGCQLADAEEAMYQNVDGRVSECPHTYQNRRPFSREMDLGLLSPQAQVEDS
# How it was run: as §1
# IKKa/CHUK = biological target: T4, IKKa/CHUK (Homo sapiens, UniProt O15111)
# T4 construct: purchased Reaction Biology Corp
# T4 sequence (O15111 1-745): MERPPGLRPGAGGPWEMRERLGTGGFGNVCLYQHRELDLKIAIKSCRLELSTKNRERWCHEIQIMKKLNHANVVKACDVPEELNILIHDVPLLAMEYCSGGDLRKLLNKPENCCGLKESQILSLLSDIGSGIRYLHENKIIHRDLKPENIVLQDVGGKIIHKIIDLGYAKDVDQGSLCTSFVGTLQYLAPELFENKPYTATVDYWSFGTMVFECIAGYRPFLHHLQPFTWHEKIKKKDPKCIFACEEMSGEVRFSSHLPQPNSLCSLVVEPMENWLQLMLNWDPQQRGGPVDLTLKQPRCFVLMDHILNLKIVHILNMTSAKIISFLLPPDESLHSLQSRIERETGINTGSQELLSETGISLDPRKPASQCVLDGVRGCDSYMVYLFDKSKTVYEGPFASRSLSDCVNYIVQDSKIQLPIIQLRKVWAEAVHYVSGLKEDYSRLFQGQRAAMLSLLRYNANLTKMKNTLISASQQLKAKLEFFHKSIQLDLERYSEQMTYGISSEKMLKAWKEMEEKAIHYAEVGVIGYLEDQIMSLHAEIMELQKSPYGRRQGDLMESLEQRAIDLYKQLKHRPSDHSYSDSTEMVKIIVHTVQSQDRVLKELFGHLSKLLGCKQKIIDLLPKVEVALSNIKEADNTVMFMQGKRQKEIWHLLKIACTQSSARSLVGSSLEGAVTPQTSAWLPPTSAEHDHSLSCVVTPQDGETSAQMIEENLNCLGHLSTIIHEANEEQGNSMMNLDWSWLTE
# How it was run: as §1
# NIK/MAP3K14 = biological target: T5, NIK/MAP3K14 (Homo sapiens, UniProt Q99558)
# T5 construct: purchased Reaction Biology Corp
# How it was run: as §1
# PAK2 = biological target: T6, PAK2 (Homo sapiens, UniProt Q13177)
# T6 construct: purchased Reaction Biology Corp
# How it was run: as §1
# PKCtheta = biological target: T7, PKCtheta (Homo sapiens, UniProt Q04759)
# T7 construct: purchased Reaction Biology Corp
# How it was run: as §1
# [1] = read-out: % Enzyme Activity (relative to DMSO controls) AVG
# [2] = read-out: % Enzyme Activity (relative to DMSO controls) Data 1
# [3] = read-out: % Enzyme Activity (relative to DMSO controls) Data 2
# T1 sequence (P00533 25-1210): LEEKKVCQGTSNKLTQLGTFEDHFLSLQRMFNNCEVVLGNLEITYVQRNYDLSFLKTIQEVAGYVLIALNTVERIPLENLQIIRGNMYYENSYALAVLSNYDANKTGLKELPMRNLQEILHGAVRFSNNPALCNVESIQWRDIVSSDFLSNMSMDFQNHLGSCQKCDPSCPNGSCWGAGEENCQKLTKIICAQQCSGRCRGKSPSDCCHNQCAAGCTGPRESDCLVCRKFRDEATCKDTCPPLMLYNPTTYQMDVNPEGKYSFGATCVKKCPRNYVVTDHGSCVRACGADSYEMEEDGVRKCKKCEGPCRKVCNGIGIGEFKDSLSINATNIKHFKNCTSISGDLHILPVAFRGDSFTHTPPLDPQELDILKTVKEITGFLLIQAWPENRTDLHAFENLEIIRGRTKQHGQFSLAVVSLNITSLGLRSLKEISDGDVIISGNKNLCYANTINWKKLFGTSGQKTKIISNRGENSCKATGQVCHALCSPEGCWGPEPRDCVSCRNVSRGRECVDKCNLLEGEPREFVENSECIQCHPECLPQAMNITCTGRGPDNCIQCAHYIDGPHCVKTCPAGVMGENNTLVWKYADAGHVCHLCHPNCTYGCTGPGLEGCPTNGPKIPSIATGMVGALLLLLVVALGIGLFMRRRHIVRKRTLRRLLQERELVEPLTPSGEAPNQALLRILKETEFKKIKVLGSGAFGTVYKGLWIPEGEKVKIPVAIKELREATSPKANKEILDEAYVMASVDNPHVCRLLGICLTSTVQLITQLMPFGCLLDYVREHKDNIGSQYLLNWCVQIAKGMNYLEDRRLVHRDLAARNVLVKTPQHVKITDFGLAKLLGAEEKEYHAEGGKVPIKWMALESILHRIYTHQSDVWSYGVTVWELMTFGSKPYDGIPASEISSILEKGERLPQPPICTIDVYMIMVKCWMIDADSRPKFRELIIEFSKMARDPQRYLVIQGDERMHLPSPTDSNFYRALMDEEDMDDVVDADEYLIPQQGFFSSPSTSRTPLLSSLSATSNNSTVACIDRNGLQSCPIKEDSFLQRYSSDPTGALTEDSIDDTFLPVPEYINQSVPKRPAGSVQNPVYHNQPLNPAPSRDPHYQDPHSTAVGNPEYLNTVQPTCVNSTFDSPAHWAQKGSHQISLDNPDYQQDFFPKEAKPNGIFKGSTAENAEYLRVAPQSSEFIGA
# T2 sequence (P22607 23-806): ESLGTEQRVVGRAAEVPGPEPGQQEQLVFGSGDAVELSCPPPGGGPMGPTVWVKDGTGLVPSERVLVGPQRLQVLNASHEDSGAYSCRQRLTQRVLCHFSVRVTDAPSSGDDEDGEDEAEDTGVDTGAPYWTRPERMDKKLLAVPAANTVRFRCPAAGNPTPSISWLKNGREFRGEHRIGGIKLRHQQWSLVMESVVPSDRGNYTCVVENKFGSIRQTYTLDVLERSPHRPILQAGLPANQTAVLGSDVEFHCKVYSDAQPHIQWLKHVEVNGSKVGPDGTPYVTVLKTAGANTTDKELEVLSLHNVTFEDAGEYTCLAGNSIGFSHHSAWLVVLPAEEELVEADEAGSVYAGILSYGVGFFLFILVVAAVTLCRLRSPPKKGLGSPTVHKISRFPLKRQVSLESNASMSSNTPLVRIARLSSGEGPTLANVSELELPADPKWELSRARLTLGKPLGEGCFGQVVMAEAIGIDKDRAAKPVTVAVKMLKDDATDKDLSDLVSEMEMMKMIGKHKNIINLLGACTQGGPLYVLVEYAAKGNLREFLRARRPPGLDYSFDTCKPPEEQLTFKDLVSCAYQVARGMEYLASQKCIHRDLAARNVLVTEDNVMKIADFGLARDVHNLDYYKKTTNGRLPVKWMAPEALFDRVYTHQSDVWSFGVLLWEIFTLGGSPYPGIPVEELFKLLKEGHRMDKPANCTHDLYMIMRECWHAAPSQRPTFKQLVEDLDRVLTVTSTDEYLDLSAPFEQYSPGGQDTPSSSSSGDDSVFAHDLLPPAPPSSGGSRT
# T6 sequence (Q13177 whole entry): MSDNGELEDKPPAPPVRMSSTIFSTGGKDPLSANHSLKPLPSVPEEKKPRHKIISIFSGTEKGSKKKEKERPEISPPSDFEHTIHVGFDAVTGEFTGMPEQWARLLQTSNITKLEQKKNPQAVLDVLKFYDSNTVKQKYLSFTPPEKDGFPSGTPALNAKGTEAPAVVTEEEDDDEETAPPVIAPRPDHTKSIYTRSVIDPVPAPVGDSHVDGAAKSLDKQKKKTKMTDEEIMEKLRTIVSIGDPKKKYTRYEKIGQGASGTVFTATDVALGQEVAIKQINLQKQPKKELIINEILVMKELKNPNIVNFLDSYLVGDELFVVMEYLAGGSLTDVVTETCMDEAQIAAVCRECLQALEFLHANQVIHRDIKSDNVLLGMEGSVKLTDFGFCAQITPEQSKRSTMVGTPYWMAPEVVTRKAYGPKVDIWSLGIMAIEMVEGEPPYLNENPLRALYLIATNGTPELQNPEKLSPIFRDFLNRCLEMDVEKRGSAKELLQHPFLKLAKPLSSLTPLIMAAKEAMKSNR
# T5 sequence (Q99558 whole entry): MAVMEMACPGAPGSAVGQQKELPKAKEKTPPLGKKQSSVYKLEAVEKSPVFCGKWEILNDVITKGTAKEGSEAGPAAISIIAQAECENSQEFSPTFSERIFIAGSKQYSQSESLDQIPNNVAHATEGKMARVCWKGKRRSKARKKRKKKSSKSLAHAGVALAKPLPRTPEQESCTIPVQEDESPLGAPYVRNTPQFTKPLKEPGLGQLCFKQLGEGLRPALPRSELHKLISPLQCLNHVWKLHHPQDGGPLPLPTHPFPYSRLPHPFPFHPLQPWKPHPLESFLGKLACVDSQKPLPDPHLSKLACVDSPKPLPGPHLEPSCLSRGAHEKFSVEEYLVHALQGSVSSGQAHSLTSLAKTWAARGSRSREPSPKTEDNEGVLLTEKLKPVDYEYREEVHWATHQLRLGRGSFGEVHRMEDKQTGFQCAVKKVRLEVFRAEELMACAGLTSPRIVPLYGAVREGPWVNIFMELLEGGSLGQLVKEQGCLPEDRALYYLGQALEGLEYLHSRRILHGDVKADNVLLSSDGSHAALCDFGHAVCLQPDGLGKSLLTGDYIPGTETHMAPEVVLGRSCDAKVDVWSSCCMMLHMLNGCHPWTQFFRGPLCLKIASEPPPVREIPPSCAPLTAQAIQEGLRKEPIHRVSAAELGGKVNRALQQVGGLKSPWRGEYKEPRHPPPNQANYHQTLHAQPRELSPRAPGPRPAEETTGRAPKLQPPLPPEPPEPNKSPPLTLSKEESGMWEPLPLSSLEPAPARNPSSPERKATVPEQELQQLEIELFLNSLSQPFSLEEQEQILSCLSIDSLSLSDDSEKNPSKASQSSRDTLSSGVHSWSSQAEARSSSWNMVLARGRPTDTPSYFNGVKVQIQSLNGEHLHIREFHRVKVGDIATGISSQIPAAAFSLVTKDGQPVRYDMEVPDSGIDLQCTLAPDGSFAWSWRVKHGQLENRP
# T7 sequence (Q04759 whole entry): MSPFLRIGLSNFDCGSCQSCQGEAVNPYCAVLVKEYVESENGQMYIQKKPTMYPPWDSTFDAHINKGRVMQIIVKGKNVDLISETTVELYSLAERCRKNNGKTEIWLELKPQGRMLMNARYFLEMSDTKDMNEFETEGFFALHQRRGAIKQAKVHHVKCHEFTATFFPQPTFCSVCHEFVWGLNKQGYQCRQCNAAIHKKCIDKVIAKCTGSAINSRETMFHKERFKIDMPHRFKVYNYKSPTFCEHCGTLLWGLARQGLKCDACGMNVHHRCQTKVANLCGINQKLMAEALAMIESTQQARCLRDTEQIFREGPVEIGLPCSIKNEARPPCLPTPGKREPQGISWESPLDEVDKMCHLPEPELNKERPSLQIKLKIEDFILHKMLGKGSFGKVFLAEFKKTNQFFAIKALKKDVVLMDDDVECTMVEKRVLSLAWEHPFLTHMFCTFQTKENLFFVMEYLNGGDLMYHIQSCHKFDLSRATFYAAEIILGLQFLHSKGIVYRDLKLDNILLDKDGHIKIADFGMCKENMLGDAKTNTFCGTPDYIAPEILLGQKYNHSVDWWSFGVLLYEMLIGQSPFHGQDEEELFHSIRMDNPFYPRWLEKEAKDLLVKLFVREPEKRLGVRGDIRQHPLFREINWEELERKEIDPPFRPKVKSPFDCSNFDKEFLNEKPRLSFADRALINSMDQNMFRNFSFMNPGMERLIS
compound,measurement,setting,value
CC(C)(C)C(=O)N1N=CC[C@H]1c1ccccc1 [GSK′963],remaining activity at 10 µM,EGFR; [1],106%
same,remaining activity at 10 µM,EGFR; [2],105%
same,remaining activity at 10 µM,EGFR; [3],108%
same,remaining activity at 10 µM,FGFR3; [1],99.4%
same,remaining activity at 10 µM,FGFR3; [2],103%
same,remaining activity at 10 µM,FGFR3; [3],95.7%
same,remaining activity at 10 µM,FLT3; [1],101%
same,remaining activity at 10 µM,FLT3; [2],98.7%
same,remaining activity at 10 µM,FLT3; [3],103%
same,remaining activity at 10 µM,IKKa/CHUK; [1],89.5%
same,remaining activity at 10 µM,IKKa/CHUK; [2],91.1%
same,remaining activity at 10 µM,IKKa/CHUK; [3],88%
same,remaining activity at 10 µM,NIK/MAP3K14; [1],98.2%
same,remaining activity at 10 µM,NIK/MAP3K14; [2],93.4%
same,remaining activity at 10 µM,NIK/MAP3K14; [3],103%
same,remaining activity at 10 µM,PAK2; [1],95.8%
same,remaining activity at 10 µM,PAK2; [2],94.9%
same,remaining activity at 10 µM,PAK2; [3],96.8%
same,remaining activity at 10 µM,PKCtheta; [1],96.8%
same,remaining activity at 10 µM,PKCtheta; [2],97%
same,remaining activity at 10 µM,PKCtheta; [3],96.7%
